Source: the supplement of paper PMC10307832

Columns and labels:
Assay in all cases: relative viability (nuclei count vs DMSO), 5 days (fraction); higher = more cells survive
[1] = system: NCI-H1650
In short: (§1)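 Lung cancer cell lines were pin-tool dosed in 1536-well plates on the day after seeding, with either a lone drug or a fixed anchor-drug dose plus five library-drug doses (not always all listed) in √10 steps. Nuclei were counted on 4× images after 5 days. Relative viability is the ratio of treated-well to vehicle-well nuclei counts, with each value a median of duplicate plates.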

[2] = system: HCC-15
In short: as §1

[3] = system: COR-L23
In short: as §1

[4] = system: NCI-H838
In short: as §1

[5] = system: SW 900
In short: as §1

[6] = system: 201T
In short: as §1

[7] = system: HCC-44
In short: as §1

[8] = system: NCI-H358
In short: as §1

[9] = system: HCC-827
In short: as §1

[10] = system: NCI-H1975
In short: as §1

[11] = system: NCI-H1437
In short: as §1

[12] = system: NCI-H23
In short: as §1

[13] = system: NCI-H2342
In short: as §1

[14] = system: BEN
In short: as §1

[15] = system: NCI-H441
In short: as §1

[16] = system: EKVX
In short: as §1

[17] = system: SK-MES-1
In short: as §1

[18] = system: NCI-H650
In short: as §1

[19] = system: A-427
In short: as §1

[20] = system: NCI-H596
In short: as §1

[21] = system: HARA
In short: as §1

Cc1sc2c(c1C)C(c1ccc(Cl)cc1)=N[C@@H](CC(=O)OC(C)(C)C)c1nnc(C)n1-2 [JQ1] + Cc1cc(Nc2cc(N3CCN(C)CC3)nc(Sc3ccc(NC(=O)C4CC4)cc3)n2)n[nH]1 [Tozasertib] (partner 0.1 µM)
relative viability ([1]; first compound 0.04 µM): 0.355
relative viability ([1]; first compound 0.1265 µM): 0.289
relative viability ([1]; first compound 0.4 µM): 0.284
relative viability ([1]; first compound 1.265 µM): 0.124
relative viability ([1]; first compound 4 µM): 0.135
relative viability ([2]; first compound 0.04 µM): 0.417
relative viability ([2]; first compound 0.4 µM): 0.314
relative viability ([2]; first compound 1.265 µM): 0.119
relative viability ([2]; first compound 4 µM): 0.0896
relative viability ([3]; first compound 0.04 µM): 0.217
relative viability ([3]; first compound 0.1265 µM): 0.148
relative viability ([3]; first compound 0.4 µM): 0.154
relative viability ([3]; first compound 1.265 µM): 0.11
relative viability ([3]; first compound 4 µM): 0.109
relative viability ([4]; first compound 0.04 µM): 0.26
relative viability ([4]; first compound 0.1265 µM): 0.221
relative viability ([4]; first compound 0.4 µM): 0.263
relative viability ([4]; first compound 1.265 µM): 0.179
relative viability ([4]; first compound 4 µM): 0.134
relative viability ([5]; first compound 0.04 µM): 0.647
relative viability ([5]; first compound 0.1265 µM): 0.641
relative viability ([5]; first compound 0.4 µM): 0.421
relative viability ([5]; first compound 1.265 µM): 0.297
relative viability ([5]; first compound 4 µM): 0.227
relative viability ([6]; first compound 0.04 µM): 0.971
relative viability ([6]; first compound 0.1265 µM): 0.651
relative viability ([6]; first compound 0.4 µM): 0.613
relative viability ([6]; first compound 1.265 µM): 0.566
relative viability ([6]; first compound 4 µM): 0.383
relative viability ([7]; first compound 0.04 µM): 0.888
relative viability ([7]; first compound 0.1265 µM): 0.345
relative viability ([7]; first compound 0.4 µM): 0.326
relative viability ([7]; first compound 1.265 µM): 0.286
relative viability ([7]; first compound 4 µM): 0.136
relative viability ([8]; first compound 0.04 µM): 0.102
relative viability ([8]; first compound 0.1265 µM): 0.102
relative viability ([8]; first compound 0.4 µM): 0.124
relative viability ([8]; first compound 1.265 µM): 0.107
relative viability ([8]; first compound 4 µM): 0.0861
relative viability ([9]; first compound 0.04 µM): 0.398
relative viability ([9]; first compound 0.4 µM): 0.328
relative viability ([9]; first compound 1.265 µM): 0.27
relative viability ([9]; first compound 4 µM): 0.213
relative viability ([10]; first compound 0.04 µM): 0.75
relative viability ([10]; first compound 0.1265 µM): 0.515
relative viability ([10]; first compound 0.4 µM): 0.487
relative viability ([10]; first compound 1.265 µM): 0.214
relative viability ([10]; first compound 4 µM): 0.171
relative viability ([11]; first compound 0.04 µM): 0.421
relative viability ([11]; first compound 0.1265 µM): 0.357
relative viability ([11]; first compound 0.4 µM): 0.357
relative viability ([11]; first compound 1.265 µM): 0.224
relative viability ([11]; first compound 4 µM): 0.174
relative viability ([12]; first compound 0.04 µM): 0.263
relative viability ([12]; first compound 0.1265 µM): 0.253
relative viability ([12]; first compound 0.4 µM): 0.279
relative viability ([12]; first compound 1.265 µM): 0.147
relative viability ([12]; first compound 4 µM): 0.138
relative viability ([13]; first compound 0.04 µM): 0.65
relative viability ([13]; first compound 0.1265 µM): 0.436
relative viability ([13]; first compound 0.4 µM): 0.46
relative viability ([13]; first compound 1.265 µM): 0.45
relative viability ([13]; first compound 4 µM): 0.336
relative viability ([14]; first compound 0.04 µM): 0.57
relative viability ([14]; first compound 0.1265 µM): 0.535
relative viability ([14]; first compound 0.4 µM): 0.5
relative viability ([14]; first compound 1.265 µM): 0.365
relative viability ([14]; first compound 4 µM): 0.28
relative viability ([15]; first compound 0.04 µM): 0.629
relative viability ([15]; first compound 0.1265 µM): 0.66
relative viability ([15]; first compound 0.4 µM): 0.631
relative viability ([15]; first compound 1.265 µM): 0.417
relative viability ([15]; first compound 4 µM): 0.219
relative viability ([16]; first compound 0.04 µM): 0.317
relative viability ([16]; first compound 0.1265 µM): 0.361
relative viability ([16]; first compound 0.4 µM): 0.336
relative viability ([16]; first compound 1.265 µM): 0.247
relative viability ([16]; first compound 4 µM): 0.185
relative viability ([17]; first compound 0.04 µM): 0.929
relative viability ([17]; first compound 0.1265 µM): 0.507
relative viability ([17]; first compound 0.4 µM): 0.419
relative viability ([17]; first compound 1.265 µM): 0.208
relative viability ([17]; first compound 4 µM): 0.171
relative viability ([18]; first compound 0.04 µM): 0.657
relative viability ([18]; first compound 0.1265 µM): 0.541
relative viability ([18]; first compound 0.4 µM): 0.368
relative viability ([18]; first compound 1.265 µM): 0.21
relative viability ([18]; first compound 4 µM): 0.177
relative viability ([19]; first compound 0.04 µM): 0.195
relative viability ([19]; first compound 0.1265 µM): 0.188
relative viability ([19]; first compound 0.4 µM): 0.173
relative viability ([19]; first compound 1.265 µM): 0.131
relative viability ([19]; first compound 4 µM): 0.125
relative viability ([20]; first compound 0.04 µM): 0.822
relative viability ([20]; first compound 0.1265 µM): 0.643
relative viability ([20]; first compound 0.4 µM): 0.72
relative viability ([20]; first compound 1.265 µM): 0.237
relative viability ([20]; first compound 4 µM): 0.225
relative viability ([21]; first compound 0.04 µM): 0.112
relative viability ([21]; first compound 0.1265 µM): 0.122
relative viability ([21]; first compound 0.4 µM): 0.123
relative viability ([21]; first compound 1.265 µM): 0.08
relative viability ([21]; first compound 4 µM): 0.0561
